Holding throughout (assay): Glasshouse assay for herbicidal activity (pre- and post-emergence), percentage phytotoxicity
What all share (format): in vivo

Test [1] has as its system Alopecurus myosuroides (ALOMY). Particulars: Alopecurus myosuroides. A digest of the protocol: (§1)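 Sow seed in standard soil in pots; apply test herbicide after 1 day (PRE) or about 12 days (POST). Grow on in the glasshouse, watering twice daily, cool-season species at 20/16 °C and warm-season at 24/18 °C. Score visible damage (0–100%) at 20 or 15 DAA respectively.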
For the next test, the system named is Avena fatua (AVEFA). Particulars: Avena fatua. The procedure, abridged: as §1
Test [2] has as its system Echinochloa crus-galli (ECHCG). The following applies: Echinochloa crus-galli. The procedure, abridged:
as §1

The test system of another test is Lolium perenne (LOLPE). The following applies: Lolium perenne. The procedure, abridged: as §1
The mark [3] stands for this setting: post-emergence, 360 h, Rate 250 g/ha, post-emergence, visual assessment 15 DAA, 100%=total damage, 0%=no damage, read-out: Post-emergence herbicidal activity (percentage phytotoxicity) ALOMY POST.
[4] abbreviates: pre-emergence, 480 h, Rate 250 g/ha, pre-emergence, visual assessment 20 DAA, 100%=total damage, 0%=no damage, read-out: Pre-emergence herbicidal activity (percentage phytotoxicity) ALOMY PRE.
Where [5] appears, read: post-emergence, 360 h, Rate 250 g/ha, post-emergence, visual assessment 15 DAA, 100%=total damage, 0%=no damage, read-out: Post-emergence herbicidal activity (percentage phytotoxicity) AVEFA POST.
Setting [6] is: pre-emergence, 480 h, Rate 250 g/ha, pre-emergence, visual assessment 20 DAA, 100%=total damage, 0%=no damage, read-out: Pre-emergence herbicidal activity (percentage phytotoxicity) AVEFA PRE.
The mark [7] stands for this setting: post-emergence, 360 h, Rate 250 g/ha, post-emergence, visual assessment 15 DAA, 100%=total damage, 0%=no damage, read-out: Post-emergence herbicidal activity (percentage phytotoxicity) ECHCG POST.
[8] abbreviates: pre-emergence, 480 h, Rate 250 g/ha, pre-emergence, visual assessment 20 DAA, 100%=total damage, 0%=no damage, read-out: Pre-emergence herbicidal activity (percentage phytotoxicity) ECHCG PRE.
Setting [9] is: post-emergence, 360 h, Rate 250 g/ha, post-emergence, visual assessment 15 DAA, 100%=total damage, 0%=no damage, read-out: Post-emergence herbicidal activity (percentage phytotoxicity) LOLPE POST.
Where [10] appears, read: pre-emergence, 480 h, Rate 250 g/ha, pre-emergence, visual assessment 20 DAA, 100%=total damage, 0%=no damage, read-out: Pre-emergence herbicidal activity (percentage phytotoxicity) LOLPE PRE.
Setting [11] is: post-emergence, 360 h, 250 g/ha, post-emergence, 15 DAA, visual assessment (100%=total damage, 0%=no damage), read-out: Post-emergence herbicidal activity (percentage phytotoxicity) ALOMY POST.
Where [12] appears, read: pre-emergence, 480 h, 250 g/ha, pre-emergence, 20 DAA, visual assessment (100%=total damage, 0%=no damage), read-out: Pre-emergence herbicidal activity (percentage phytotoxicity) ALOMY PRE.
Setting [13] is: post-emergence, 360 h, 250 g/ha, post-emergence, 15 DAA, visual assessment (100%=total damage, 0%=no damage), read-out: Post-emergence herbicidal activity (percentage phytotoxicity) AVEFA POST.
Where [14] appears, read: pre-emergence, 480 h, 250 g/ha, pre-emergence, 20 DAA, visual assessment (100%=total damage, 0%=no damage), read-out: Pre-emergence herbicidal activity (percentage phytotoxicity) AVEFA PRE.
Where [15] appears, read: post-emergence, 360 h, 250 g/ha, post-emergence, 15 DAA, visual assessment (100%=total damage, 0%=no damage), read-out: Post-emergence herbicidal activity (percentage phytotoxicity) ECHCG POST.
The mark [16] stands for this setting: pre-emergence, 480 h, 250 g/ha, pre-emergence, 20 DAA, visual assessment (100%=total damage, 0%=no damage), read-out: Pre-emergence herbicidal activity (percentage phytotoxicity) ECHCG PRE.
Setting [17] is: post-emergence, 360 h, 250 g/ha, post-emergence, 15 DAA, visual assessment (100%=total damage, 0%=no damage), read-out: Post-emergence herbicidal activity (percentage phytotoxicity) LOLPE POST.
[18] abbreviates: pre-emergence, 480 h, 250 g/ha, pre-emergence, 20 DAA, visual assessment (100%=total damage, 0%=no damage), read-out: Pre-emergence herbicidal activity (percentage phytotoxicity) LOLPE PRE.
[19] abbreviates: post-emergence, 360 h, Rate 250 g/ha, post-emergence, assessed visually 15 DAA, 100%=total damage, 0%=no damage, read-out: Post-emergence herbicidal activity (percentage phytotoxicity) ALOMY POST.
[20] abbreviates: pre-emergence, 480 h, Rate 250 g/ha, pre-emergence, assessed visually 20 DAA, 100%=total damage, 0%=no damage, read-out: Pre-emergence herbicidal activity (percentage phytotoxicity) ALOMY PRE.
Where [21] appears, read: post-emergence, 360 h, Rate 250 g/ha, post-emergence, assessed visually 15 DAA, 100%=total damage, 0%=no damage, read-out: Post-emergence herbicidal activity (percentage phytotoxicity) AVEFA POST.
Setting [22] is: pre-emergence, 480 h, Rate 250 g/ha, pre-emergence, assessed visually 20 DAA, 100%=total damage, 0%=no damage, read-out: Pre-emergence herbicidal activity (percentage phytotoxicity) AVEFA PRE.
Where [23] appears, read: post-emergence, 360 h, Rate 250 g/ha, post-emergence, assessed visually 15 DAA, 100%=total damage, 0%=no damage, read-out: Post-emergence herbicidal activity (percentage phytotoxicity) ECHCG POST.
The mark [24] stands for this setting: pre-emergence, 480 h, Rate 250 g/ha, pre-emergence, assessed visually 20 DAA, 100%=total damage, 0%=no damage, read-out: Pre-emergence herbicidal activity (percentage phytotoxicity) ECHCG PRE.
Where [25] appears, read: post-emergence, 360 h, Rate 250 g/ha, post-emergence, assessed visually 15 DAA, 100%=total damage, 0%=no damage, read-out: Post-emergence herbicidal activity (percentage phytotoxicity) LOLPE POST.
The mark [26] stands for this setting: pre-emergence, 480 h, Rate 250 g/ha, pre-emergence, assessed visually 20 DAA, 100%=total damage, 0%=no damage, read-out: Pre-emergence herbicidal activity (percentage phytotoxicity) LOLPE PRE.

Results on 9 compounds are retold here after US10206394B2, “Herbicidal compounds” (Syngenta Participations AG, priority 2014, dated 2019).

Read-outs that look alike come from different tables or passages of the source.

In the case of `Cc1cc(-c2ncc(F)cc2F)cc(C)c1C1C(=O)CC(CC(=O)NO)C1=O` (stereo not drawn) [Compound B403], the pest or weed control at 250 g/ha in test [1] (setting [3]) was 90%; in test [1] (setting [4]), 60%; in the test on Avena fatua (AVEFA) (setting [5]), 100%; in the test with Avena fatua (AVEFA) (setting [6]), 50%; in test [2] (setting [7]), 100%; in test [2] (setting [8]), 0%. The pest or weed control at 250 g/ha with Lolium perenne (LOLPE) (setting [9]) was 80%; in the test on Lolium perenne (LOLPE) (setting [10]), 20%.

With `Cc1cc(-c2ncc(F)cc2F)cc(C)c1C1C(=O)CC(CC(N)=O)C1=O` (stereo not drawn) [Compound B54], the pest or weed control at 250 g/ha in test [1] (setting [11]) was found to be 100%; in test [1] (setting [12]) it was 80%; in the test on Avena fatua (AVEFA) (setting [13]), 100%; in the test with Avena fatua (AVEFA) (setting [14]), 80%; in test [2] (setting [15]) it was 100%; in test [2] (setting [16]), 80%. In addition, the results for the pest or weed control at 250 g/ha in the test with Lolium perenne (LOLPE) (setting [17]) and in the test on Lolium perenne (LOLPE) (setting [18]) were 100% and 80%, respectively.

Turning to `CCCCNC(=O)CC1CC(=O)C(c2c(C)cc(-c3ncc(Cl)cc3F)cc2C)C1=O` (stereo not drawn) [Compound A44], the pest or weed control at 250 g/ha (in test [1] (setting [19]); in test [1] (setting [20]); with Avena fatua (AVEFA) (setting [21]); with Avena fatua (AVEFA) (setting [22]); in test [2] (setting [23]); in test [2] (setting [24])) was 100% each time. The pest or weed control at 250 g/ha in the test on Lolium perenne (LOLPE) (setting [25]) and in the test on Lolium perenne (LOLPE) (setting [26]) was 100% each time.

Regarding `C/C=C/c1cc(C)c(C2C(=O)CC(CC(=O)NCc3ccc(OC)cc3)C2=O)c(C)c1` (stereo not drawn) [Compound B243], the pest or weed control at 250 g/ha came to 80% in test [1] (post-emergence, 360 h, POST-emergence, rate 250 g/ha, visual score 15 DAA (100%=total damage, 0%=no damage), read-out: Post-emergence herbicidal activity (percentage phytotoxicity) ALOMY POST); 0% in test [1] (pre-emergence, 480 h, PRE-emergence, rate 250 g/ha, visual score 20 DAA (100%=total damage, 0%=no damage), read-out: Pre-emergence herbicidal activity (percentage phytotoxicity) ALOMY PRE); 50% in the test with Avena fatua (AVEFA) (post-emergence, 360 h, POST-emergence, rate 250 g/ha, visual score 15 DAA (100%=total damage, 0%=no damage), read-out: Post-emergence herbicidal activity (percentage phytotoxicity) AVEFA POST); 0% with Avena fatua (AVEFA) (pre-emergence, 480 h, PRE-emergence, rate 250 g/ha, visual score 20 DAA (100%=total damage, 0%=no damage), read-out: Pre-emergence herbicidal activity (percentage phytotoxicity) AVEFA PRE); 90% in test [2] (post-emergence, 360 h, POST-emergence, rate 250 g/ha, visual score 15 DAA (100%=total damage, 0%=no damage), read-out: Post-emergence herbicidal activity (percentage phytotoxicity) ECHCG POST); 0% in test [2] (pre-emergence, 480 h, PRE-emergence, rate 250 g/ha, visual score 20 DAA (100%=total damage, 0%=no damage), read-out: Pre-emergence herbicidal activity (percentage phytotoxicity) ECHCG PRE). Further, the pest or weed control at 250 g/ha in the test on Lolium perenne (LOLPE) (post-emergence, 360 h, POST-emergence, rate 250 g/ha, visual score 15 DAA (100%=total damage, 0%=no damage), read-out: Post-emergence herbicidal activity (percentage phytotoxicity) LOLPE POST) amounted to 70%; in the test with Lolium perenne (LOLPE) (pre-emergence, 480 h, PRE-emergence, rate 250 g/ha, visual score 20 DAA (100%=total damage, 0%=no damage), read-out: Pre-emergence herbicidal activity (percentage phytotoxicity) LOLPE PRE) it was 0%.

On to `Cc1cc(-c2ccc(Cl)cn2)cc(C)c1C1C(=O)CC(CC(=O)NC(C)C)C1=O` (stereo not drawn) [Compound B360], for which the pest or weed control at 250 g/ha (in test [1] (setting [3]); in test [1] (setting [4]); in the test on Avena fatua (AVEFA) (setting [5]); with Avena fatua (AVEFA) (setting [6]); in test [2] (setting [7]); in test [2] (setting [8])) was 100% throughout. In addition, the pest or weed control at 250 g/ha with Lolium perenne (LOLPE) (setting [9]) and in the test on Lolium perenne (LOLPE) (setting [10]) was 100% each time.

On to `Cc1ccc(CNC(=O)CC2CC(=O)C(c3c(C)cc(C)cc3C)C2=O)nc1` (stereo not drawn) [Compound A23], for which the pest or weed control at 250 g/ha came out at 80% in test [1] (setting [19]); 80% in test [1] (setting [20]); 70% with Avena fatua (AVEFA) (setting [21]); 60% with Avena fatua (AVEFA) (setting [22]); 90% in test [2] (setting [23]); 100% in test [2] (setting [24]). Further, the pest or weed control at 250 g/ha came to 80% in the test with Lolium perenne (LOLPE) (setting [25]) and 70% with Lolium perenne (LOLPE) (setting [26]).

Regarding `Cc1cc(-c2ncccc2Cl)cc(C)c1C1C(=O)CC(CC(=O)NC(C)(C)C)C1=O` (stereo not drawn) [Compound B74], the pest or weed control at 250 g/ha in test [1] (setting [11]) stood at 60%; in test [1] (setting [12]) it was 10%; in the test on Avena fatua (AVEFA) (setting [13]) it was 60%; in the test with Avena fatua (AVEFA) (setting [14]), 0%; in test [2] (setting [15]), 60%; in test [2] (setting [16]), 10%. The pest or weed control at 250 g/ha was 50% in the test with Lolium perenne (LOLPE) (setting [17]) and 30% with Lolium perenne (LOLPE) (setting [18]).

`Cc1cc(-c2ncc(Cl)cn2)cc(C)c1C1C(=O)CC(CC(=O)NCc2cccs2)C1=O` (stereo not drawn) [Compound A139]: the pest or weed control at 250 g/ha in test [1] (setting [19]) turned out to be 10%; in test [1] (setting [20]) it was 0%; in the test on Avena fatua (AVEFA) (setting [21]), 30%; in the test on Avena fatua (AVEFA) (setting [22]) it was 0%; in test [2] (setting [23]) it was 20%; in test [2] (setting [24]), 90%. For the same compound, the pest or weed control at 250 g/ha was found to be 10% with Lolium perenne (LOLPE) (setting [25]) and 0% with Lolium perenne (LOLPE) (setting [26]).

As for `Cc1cc(C)c(C2C(=O)CC(CC(=O)NCc3ccc(F)cc3)C2=O)c(C)c1` (stereo not drawn) [Compound B16], the pest or weed control at 250 g/ha worked out at 70% in test [1] (setting [11]); 80% in test [1] (setting [12]); 70% in the test on Avena fatua (AVEFA) (setting [13]); 30% in the test with Avena fatua (AVEFA) (setting [14]); 90% in test [2] (setting [15]); 90% in test [2] (setting [16]). Besides, the pest or weed control at 250 g/ha in the test with Lolium perenne (LOLPE) (setting [17]) and in the test with Lolium perenne (LOLPE) (setting [18]) was 90% throughout.
